Consider one compound from patent US12319726B2, “Method for treating CD40-mediated diseases” (CASE WESTERN RESERVE UNIVERSITY, priority 2008, dated 2025).

Molecules are shown by their SMILES. Where a SMILES comes first, the peptide text is derived from it. [ ]: non-standard residue; d: D form.

For one experiment, the system named is CD40-TRAF2,3 signaling. The experiment can be described thus: NF-κB luciferase reporter assay in mHEVc expressing hmCD40 ΔT6 (signals through the TRAF2,3 binding site). The format is cell-based, mouse. The settings on record: 1 μM, 3 hr pre-incubation, hmCD40 ΔT6 cells; P<0.01. The method, then:
Mouse endothelial cells (mHEVc) that express an NF-κB response element that drives transcription of a luciferase reporter plus either hmCD40 ΔT2,3 or hmCD40 ΔT6 were pre-incubated with ri control peptide (Ctr P) or ri CD40-TRAF2,3 blocking peptide (T2,3 BP; both at 1 μM) or medium alone followed by stimulation with human CD154. Data are expressed as fold-increase in normalized luciferase activity in cells stimulated with CD154 compared to cells treated with respective peptide in the absence of CD154. Data shown represent Mean±SD. Results are representative of 2 independent experiments. **P<0.01.
Peptides were tested as described using the mouse endothelial cells mHEVc that expresses a chimera of the extracellular domain of human CD40 and intracytoplasmic domain of mouse CD40 (hmCD40) with either a mutation that prevents recruitment of TRAF2,3 (hmCD40 ΔT2,3) or TRAF6 (hmCD40 ΔT6). These cells were transfected with pGL4.32luc2P/NF-κB-RE/Hygro vector (Promega Corporation, Madison, WI) encoding an NF-κB response element that drives the luciferase reporter gene luc2P (Photinus pyralis). Cells were pre-incubated with peptides for 3 hr. followed by stimulation with human CD154. Luciferase activity was assessed using a Steady-Glo luciferase assay system (Promega Corporation) and a luminometer. The effects of peptides on cell viability were examined using alamarBlue cell viability assay. […]
In general terms: Reporter assays use an easily measured gene product as a stand-in for the process of interest.

Another experiment deals with retinas subjected to I/R. Description: Model of retinal ischemia/reperfusion (I/R), intravitreal peptide. The format is in vivo, B6 mice. As for the experimental part:
FIGS. 20(A-C) illustrate images and graphs showing ri CD40-TRAF2,3 blocking peptide protects against loss of ganglion cells and leukocyte infiltration in retinas subjected to I/R. One eye from each B6 and CD40^−/− mouse was subjected to I/R. Contralateral non-ischemic eye was used as control. Eyes subjected to I/R in B6 mice were treated intravitreously with or without ri control peptide, ri CD40-TRAF2,3 blocking peptide (both 1 μg) 30 min prior to increase in IOP. Eyes were collected 2 d after I/R. A marked decrease in the number of ganglion cells is observed in ischemic eyes from B6 treated with ri control peptide or vehicle (original magnification ×400). […] Arrowhead plus asterix identifies a PMN magnified in the inset (original magnification ×600). Scale bar, 50 μm. Number of ganglion cells per mm. Number of infiltrating leukocytes in the inner retina and vitreous per section. GCL=Ganglion cell layer; IPL=Inner plexiform layer; INL=Inner nuclear layer. OPL=Outer plexiform layer; ONL=Outer nuclear layer. Data shown represent Mean±SEM (9 mice per group). *P<0.05; **P<0.01; […].
FIG. 21 illustrates graphs showing ri CD40-TRAF2,3 blocking peptide impairs upregulation of NOS2 and COX-2 in retinas subjected to I/R. One eye of each mouse was treated as above and subjected to I/R. Eyes were collected after 2 d. mRNA levels of NOS2 and COX-2 were assessed by quantitative real time PCR. One non-ischemic eye from a B6 mouse was given an arbitrary value of 1 and data are expressed as fold-increase compared to this animal. Data shown represent Mean±SEM (7-9 mice per group). ***P<0.001.
FIGS. 22(A-B) illustrate graphs and images showing ri CD40-TRAF2,3 blocking peptide impairs upregulation of ICAM-1 and KC/CXCL1 in retinal endothelial cells from retinas subjected to I/R. One eye of each mouse was subjected to I/R. Eyes were collected after 2 d. mRNA levels of ICAM-1 and KC/CXCL1 were assessed by quantitative real time PCR. One non-ischemic eye from a B6 mouse was given an arbitrary value of 1 and data are expressed as fold-increase compared to this animal. Data shown represent Mean±SEM (7-9 mice per group). ***P<0.001. Retinal sections were incubated with Tomato Lectin (labels endothelial cells) plus either anti-ICAM-1 or anti-KC/CXCL1 Ab. Original magnification ×600. GCL=Ganglion cell layer; IPL=Inner plexiform layer; INL=Inner nuclear layer. Scale bar, 10 μm. 6 mice/group.
FIG. 23 illustrates images showing ri CD40-TRAF2,3 blocking peptide impairs NOS2 and KC/CXCL1 upregulation in Müller cells from retinas subjected to I/R. Eyes from B6 mice were treated with control peptide or CD40-TRAF2,3 blocking peptide, subjected to I/R and collected after 2 d. Retinal sections were incubated with anti-Vimentin Ab (labels Müller cells) plus either anti-NOS2 or anti-KC/CXCL1 Ab. Protein expression at the level of Müller cells stalks. […]. Original magnification ×600. Scale bar, 10 μm. 6 mice/group.
FIGS. 24(A-D) illustrate images and graphs showing ri CD40-TRAF2,3 blocking peptide protects against loss of ganglion neurons and inflammation when administered after retinal I/R. One eye from each B6 mouse was subjected to I/R. Non-ischemic eyes were used as controls. Eyes that were subjected to I/R received either ri control peptide or ri CD40-TRAF2,3 blocking peptide 90 min after increase in IOP. Eyes were collected 2 d after I/R. Administration of the blocking peptide protects against ganglion cell loss and infiltration by leukocytes (arrowhead). Original magnification ×400. Scale bar, 50 μm. Number of ganglion cells per mm. Number of leukocytes in the inner retina and vitreous per section. mRNA levels of ICAM-1, KC/CXCL1, NOS2 and COX-2 were assessed by quantitative real time PCR as above. Data shown represent Mean±SEM (7-9 mice per group). **P<0.01; ***P<0.001. GCL=Ganglion cell layer; IPL=Inner plexiform layer; INL=Inner nuclear layer. […]

Where [1] appears, read: 1 μg intravitreal prior to I/R, 2 d, real time PCR.
[2] abbreviates: peptide administered 90 min post-retinal ischemia, 2 d, mRNA.
Where [3] appears, read: prior to I/R, 2 d, immunohistochemistry.

Regarding `CC(C)C[C@@H](NC(=O)[C@@H](Cc1c[nH]cn1)NC(=O)CNC(=O)[C@@H](Cc1ccc(O)cc1)NC(=O)CNC(=O)[C@@H](CCCNC(=N)N)NC(=O)[C@@H](CCCCN)NC(=O)[C@@H](CCCCN)NC(=O)[C@@H](CCCNC(=N)N)NC(=O)[C@@H](CCCNC(=N)N)NC(=O)[C@@H](CCC(N)=O)NC(=O)[C@@H](CCCNC(=N)N)NC(=O)[C@@H](CCCNC(=N)N)NC(=O)[C@H](N)CCCNC(=N)N)C(=O)N[C@@H](C(=O)N[C@H](CCC(=O)O)C(=O)N[C@H](CCC(N)=O)C(=O)N[C@@H](C(=O)N[C@H](Cc1c[nH]cn1)C(=O)N[C@H](C)C(=O)N[C@H](C)C(=O)N[C@@H](C(=O)N[C@H](CC(N)=O)C(=O)O)[C@H](C)O)C(C)C)[C@H](C)O` [ri CD40-TRAF2,3 blocking peptide, NH2-rrrqrrkkrgy ghlteqvhaatn-OH] (H-[dR][dR][dR][dQ][dR][dR][dK][dK][dR]G[dY]G[dH][dL][dT][dE][dQ][dV][dH][dA][dA][dT][dN]-OH), the “NF-κB activity (luciferase) after human CD154” value in the experiment on CD40-TRAF2,3 signaling is recorded as “inhibited NF-κB activity”. In the experiment on retinas subjected to I/R (setting [1]), the “COX-2 mRNA levels in retina” value is “impaired upregulation”, the “ICAM-1 mRNA levels in retina” value is given as “significant reduction”, the “KC/CXCL1 mRNA levels in retina” value is given as “significant reduction” and the “NOS2 mRNA levels in retina” value is recorded as “impaired upregulation”. The “PMN infiltration in the inner retina and vitreous” value with retinas subjected to I/R (1 μg intravitreal prior to I/R, 2 d after I/R) is given as “diminished inflammatory infiltrate”. Further, the “loss of ganglion cells” value with retinas subjected to I/R (1 μg intravitreal prior to I/R, eyes collected 2 d after I/R) was “significant attenuation in the loss of ganglion cells”. Further, the leukocyte recruitment result in the experiment with retinas subjected to I/R (peptide administered 90 min post-retinal ischemia, 2 d) is recorded as “protected against”. In the experiment with retinas subjected to I/R (setting [2]), the “upregulation of COX-2” value is reported as “protected against”, the “upregulation of ICAM-1” value is recorded as “protected against”, the “upregulation of KC/CXCL1” value is “protected against” and the “upregulation of NOS2” value is on record as “protected against”. Also, the ganglion cell loss entry with retinas subjected to I/R (peptide administered 90 min post-retinal ischemia, eyes collected 2 d after I/R) was “protected against”. In the experiment on retinas subjected to I/R (setting [3]), the “expression of ICAM-1 in retinal endothelial cells” value is reported as “decreased expression”, the “expression of KC/CXCL1 in Müller cells” value was “impaired expression”, the “expression of KC/CXCL1 in retinal endothelial cells” value is “decreased expression” and the “expression of NOS2 in Müller cells” value is reported as “impaired expression”.
